Article PMC10058310 (Science Advances, 2023)

How the values were obtained:
[1] = test system: recombinant SARS2 encoding WT M^pro; assay: microbe, parasite or virus in culture; assay type: cell-based; details: A549-hACE2 cells; for IC50: Severe acute respiratory syndrome coronavirus 2, replication-competent SARS-CoV-2, M^pro WT, 72 hpi, read-out: IC50 (95% CI)
[2] = test system: recombinant SARS2 encoding ∆P168 M^pro; assay: microbe, parasite or virus in culture; assay type: cell-based; details: Severe acute respiratory syndrome coronavirus 2; read-out: IC50 (95% CI)
[3] = biological target: SARS2 M^pro ∆P168 (Severe acute respiratory syndrome coronavirus 2, UniProt P0DTD1, DEL3431-3431); assay type: cell-based, SARS-CoV-2

Compound | Fold change in antiviral EC50 ([1]; M^pro WT virus (reference)) | IC50 [1] | IC50 [2] | effect on dose-response curve versus WT M^pro [3]
CCC(CC)COC(=O)[C@H](C)N[P@](=O)(OC[C@H]1O[C@@](C#N)(c2ccc3c(N)ncnn23)[C@H](O)[C@@H]1O)Oc1ccccc1 [Remdesivir, remdesivir] | 1.0 fold | 1200 nM | 1100 nM | 
Cn1cnc(Cn2c(=O)[nH]/c(=N\c3cc4cn(C)nc4cc3Cl)n(Cc3cc(F)c(F)cc3F)c2=O)n1 [Ensitrelvir, ensitrelvir] |  | 4.3 nM | 3.6 nM | 
CC(C)(C)NC(=O)N[C@H](C(=O)N1C[C@H]2[C@@H]([C@H]1C(=O)NC(CC1CCC1)C(=O)C(N)=O)C2(C)C)C(C)(C)C (some centres unmarked) [boceprevir] |  |  |  | no detectable effect
CC(C)(C)[C@H](NC(=O)C(F)(F)F)C(=O)N1C[C@H]2[C@@H]([C@H]1C(=O)N[C@H](C#N)C[C@@H]1CCNC1=O)C2(C)C [Nirmatrelvir, nirmatrelvir] |  | 4.4 nM | 7 nM | 
